Laboratory results published in PMC5218480 (PLoS ONE, 2017).

System: MV-4-11 cells
Assay: Gene expression microarray analysis (Affymetrix PrimeView) and GSEA
Assay type: cell-based, human
Set-up: RFU PODN (11730768_x_at) / Fold change /veh PODN (11730768_x_at) / RFU LINC00158 (11744669_a_at) / Fold change /veh LINC00158 (11744669_a_at) / RFU DUSP10 (11751237_a_at) / Fold change /veh DUSP10 (11751237_a_at) / RFU ID3 (11757404_x_at) / Fold change /veh ID3 (11757404_x_at) / RFU PLEKHG5 (11737974_s_at) / Fold change /veh PLEKHG5 (11737974_s_at) / RFU LRRC4B (11730491_at) / Fold change /veh LRRC4B (11730491_at) / RFU GIMAP4 (11747438_a_at) / Fold change /veh GIMAP4 (11747438_a_at) / RFU KRT8 (11758183_x_at) / Fold change /veh KRT8 (11758183_x_at) / RFU CNN1 (11734310_a_at) / Fold change /veh CNN1 (11734310_a_at) / RFU VPS37D (11726825_at) / Fold change /veh VPS37D (11726825_at) / RFU C10orf10 (11716522_x_at) / Fold change /veh C10orf10 (11716522_x_at) / RFU KIR2DL2 /// KIR2DL4 /// KIR2DL5A /// KIR2DL5B /// KIR2DS1 /// KIR2DS2 /// KIR2DS3 /// KIR2DS4 /// KIR3DL3 /// KIR3DL3 /// KIR3DS1 (11738374_at) / Fold change /veh KIR2DL2 /// KIR2DL4 /// KIR2DL5A /// KIR2DL5B /// KIR2DS1 /// KIR2DS2 /// KIR2DS3 /// KIR2DS4 /// KIR3DL3 /// KIR3DL3 /// KIR3DS1 (11738374_at) / RFU C1QL1 (11718748_at) / Fold change /veh C1QL1 (11718748_at) / RFU TMPRSS4 (11747572_a_at) / Fold change /veh TMPRSS4 (11747572_a_at) / RFU HAMP (11756126_x_at) / Fold change /veh HAMP (11756126_x_at) / RFU RNFT2 (11725882_a_at) / Fold change /veh RNFT2 (11725882_a_at) / RFU NR4A2 (11747474_a_at) / Fold change /veh NR4A2 (11747474_a_at) / RFU ABCC12 (11746883_a_at) / Fold change /veh ABCC12 (11746883_a_at) / RFU TMEM136 (11760407_x_at) / Fold change /veh TMEM136 (11760407_x_at) / RFU CLDN22 /// WWC2 (11732394_at) / Fold change /veh CLDN22 /// WWC2 (11732394_at) / RFU HLA-DPB1 (11760878_x_at) / Fold change /veh HLA-DPB1 (11760878_x_at) / RFU SPINT1 (11716480_a_at) / Fold change /veh SPINT1 (11716480_a_at) / RFU GAP43 (11754022_s_at) / Fold change /veh GAP43 (11754022_s_at) / RFU A4GNT (11735810_at) / Fold change /veh A4GNT (11735810_at) / RFU PRB3 (11715151_x_at) / Fold change /veh PRB3 (11715151_x_at) / RFU TUBB4B (11761932_at) / Fold change /veh TUBB4B (11761932_at) / RFU CAPN14 (11732068_a_at) / Fold change /veh CAPN14 (11732068_a_at) / RFU TMCC2 (11721928_a_at) / Fold change /veh TMCC2 (11721928_a_at) / RFU IRGQ (11745062_a_at) / Fold change /veh IRGQ (11745062_a_at) / RFU FAM174B (11720279_a_at) / Fold change /veh FAM174B (11720279_a_at) / RFU TMPRSS4 (11748680_a_at) / Fold change /veh TMPRSS4 (11748680_a_at) / RFU FAM212B (11763350_a_at) / Fold change /veh FAM212B (11763350_a_at) / RFU PLEKHG5 (11743358_a_at) / Fold change /veh PLEKHG5 (11743358_a_at) / RFU ZSCAN30 (11745921_a_at) / Fold change /veh ZSCAN30 (11745921_a_at) / RFU CMKLR1 (11741424_a_at) / Fold change /veh CMKLR1 (11741424_a_at) / RFU LOC101060620 /// MAPK8IP1 (11723275_at) / Fold change /veh LOC101060620 /// MAPK8IP1 (11723275_at) / RFU SPTSSB (11747773_x_at) / Fold change /veh SPTSSB (11747773_x_at) / RFU PRSS12 (11739890_at) / Fold change /veh PRSS12 (11739890_at) / RFU BIN1 (11741810_x_at) / Fold change /veh BIN1 (11741810_x_at) / RFU WNT11 (11732464_a_at) / Fold change /veh WNT11 (11732464_a_at) / RFU C10orf10 (11716521_a_at) / Fold change /veh C10orf10 (11716521_a_at) / RFU C5orf56 (11738089_at) / Fold change /veh C5orf56 (11738089_at) / RFU CYB561 (11721691_x_at) / Fold change /veh CYB561 (11721691_x_at) / RFU ANKRD19P (11752326_a_at) / Fold change /veh ANKRD19P (11752326_a_at) / RFU OR2T12 /// OR2T33 /// OR2T8 (11738714_s_at) / Fold change /veh OR2T12 /// OR2T33 /// OR2T8 (11738714_s_at) / RFU VCAN (11748164_a_at) / Fold change /veh VCAN (11748164_a_at) / RFU JSRP1 (11732532_at) / Fold change /veh JSRP1 (11732532_at) / RFU KRTAP10-11 (11738290_x_at) / Fold change /veh KRTAP10-11 (11738290_x_at) / RFU MYO3A (11730013_a_at) / Fold change /veh MYO3A (11730013_a_at) / RFU EBF3 (11725865_a_at) / Fold change /veh EBF3 (11725865_a_at) / RFU CAMK2N1 (11719241_x_at) / Fold change /veh CAMK2N1 (11719241_x_at) / RFU C5orf56 (11738088_a_at) / Fold change /veh C5orf56 (11738088_a_at) / RFU OLFML3 (11715873_a_at) / Fold change /veh OLFML3 (11715873_a_at) / RFU LOC100653217 /// NTM (11731650_a_at) / Fold change /veh LOC100653217 /// NTM (11731650_a_at) / RFU MAPK11 (11762145_a_at) / Fold change /veh MAPK11 (11762145_a_at) / RFU FIZ1 (11724087_x_at) / Fold change /veh FIZ1 (11724087_x_at) / RFU OASL (11726364_x_at) / Fold change /veh OASL (11726364_x_at) / RFU SOX15 (11748057_x_at) / Fold change /veh SOX15 (11748057_x_at) / RFU CD79A (11719716_a_at) / Fold change /veh CD79A (11719716_a_at) / RFU HIST1H1D (11736915_at) / Fold change /veh HIST1H1D (11736915_at) / RFU CASKIN2 (11723855_a_at) / Fold change /veh CASKIN2 (11723855_a_at) / RFU LOC730098 (11760151_x_at) / Fold change /veh LOC730098 (11760151_x_at) / RFU OR4N2 (11742367_at) / Fold change /veh OR4N2 (11742367_at) / RFU PRRT2 (11749266_a_at) / Fold change /veh PRRT2 (11749266_a_at) / RFU SNX32 (11753110_a_at) / Fold change /veh SNX32 (11753110_a_at) / RFU CDHR5 (11726645_a_at) / Fold change /veh CDHR5 (11726645_a_at) / RFU RCAN1 (11760418_a_at) / Fold change /veh RCAN1 (11760418_a_at) / RFU FAM167A (11723789_a_at) / Fold change /veh FAM167A (11723789_a_at) / RFU FAM26E (11764081_at) / Fold change /veh FAM26E (11764081_at) / RFU ISYNA1 (11749810_s_at) / Fold change /veh ISYNA1 (11749810_s_at) / RFU ACY1 (11761880_at) / Fold change /veh ACY1 (11761880_at) / RFU 11764098_at / Fold change /veh 11764098_at / RFU SAMD14 (11745864_x_at) / Fold change /veh SAMD14 (11745864_x_at) / RFU NPB (11741838_a_at) / Fold change /veh NPB (11741838_a_at) / RFU TMPRSS6 (11731388_a_at) / Fold change /veh TMPRSS6 (11731388_a_at) / RFU KRTAP10-2 (11738614_at) / Fold change /veh KRTAP10-2 (11738614_at) / RFU ARHGAP8 /// PRR5-ARHGAP8 (11727945_x_at) / Fold change /veh ARHGAP8 /// PRR5-ARHGAP8 (11727945_x_at) / RFU KRTAP5-7 /// NADSYN1 (11734609_at) / Fold change /veh KRTAP5-7 /// NADSYN1 (11734609_at) / RFU RASL12 (11751679_a_at) / Fold change /veh RASL12 (11751679_a_at) / RFU CDKN2B (11736163_a_at) / Fold change /veh CDKN2B (11736163_a_at) / RFU PRF1 (11729649_at) / Fold change /veh PRF1 (11729649_at) / RFU, ZNF638 /// ZNF638-IT1 / Fold change vs veh, ZNF638 /// ZNF638-IT1 / RFU, PANK3 / Fold change vs veh, PANK3 / RFU, SH3YL1 / Fold change vs veh, SH3YL1 / RFU, ZEB2 / Fold change vs veh, ZEB2 / RFU, NRIP1 / Fold change vs veh, NRIP1 / RFU, PTTG1IP / Fold change vs veh, PTTG1IP / RFU, CAPN2 / Fold change vs veh, CAPN2 / RFU, MED14 / Fold change vs veh, MED14 / RFU, SNORA58 / Fold change vs veh, SNORA58 / RFU, C1orf63 / Fold change vs veh, C1orf63 / RFU, LRRFIP1 / Fold change vs veh, LRRFIP1 / RFU, NDUFAF7 / Fold change vs veh, NDUFAF7 / RFU, SLC12A2 / Fold change vs veh, SLC12A2 / RFU, IBTK / Fold change vs veh, IBTK / RFU, ESF1 / Fold change vs veh, ESF1 / Fold change vs veh, TMEM50B / RFU, TAOK1 / Fold change vs veh, TAOK1 / RFU, ACBD3 / Fold change vs veh, ACBD3 / RFU, TMA16 / Fold change vs veh, TMA16 / RFU, RWDD3 / Fold change vs veh, RWDD3 / RFU, BCAT1 / Fold change vs veh, BCAT1 / RFU, EDEM3 / Fold change vs veh, EDEM3 / RFU, TMEM33 / Fold change vs veh, TMEM33 / RFU, WDR75 / Fold change vs veh, WDR75 / RFU, AHCTF1 / Fold change vs veh, AHCTF1 / RFU, TFRC / Fold change vs veh, TFRC / RFU, ZDHHC17 / Fold change vs veh, ZDHHC17 / RFU, NOM1 / Fold change vs veh, NOM1 / RFU, ARL8B / Fold change vs veh, ARL8B / RFU, ZBTB11 / Fold change vs veh, ZBTB11 / RFU, TAMM41 / Fold change vs veh, TAMM41 / RFU, KIAA1704 /// LOC100996395 / Fold change vs veh, KIAA1704 /// LOC100996395 / RFU, ING1 / Fold change vs veh, ING1 / RFU, TRMT61B / Fold change vs veh, TRMT61B / RFU, FUBP3 / Fold change vs veh, FUBP3 / RFU, TP53 / Fold change vs veh, TP53 / RFU, TNKS2 / Fold change vs veh, TNKS2 / RFU, ZFP14 / Fold change vs veh, ZFP14 / RFU, ACTR2 / Fold change vs veh, ACTR2 / RFU, PPP3R1 / Fold change vs veh, PPP3R1 / RFU, PIK3R1 / Fold change vs veh, PIK3R1 / RFU, HNRNPA1 / Fold change vs veh, HNRNPA1 / RFU, RNF170 / Fold change vs veh, RNF170 / RFU, ZNF28 / Fold change vs veh, ZNF28 / RFU, RNGTT / Fold change vs veh, RNGTT / RFU, OGT / Fold change vs veh, OGT / RFU, BRD1 / Fold change vs veh, BRD1 / RFU, MARS / Fold change vs veh, MARS / RFU, ZNF655 / Fold change vs veh, ZNF655 / RFU, FAHD1 / Fold change vs veh, FAHD1 / RFU, BDP1 / Fold change vs veh, BDP1 / RFU, LRRCC1 / Fold change vs veh, LRRCC1 / RFU, ARID1A / Fold change vs veh, ARID1A / RFU, ZNF146 / Fold change vs veh, ZNF146 / RFU, ZNF330 / Fold change vs veh, ZNF330 / RFU, GPN3 / Fold change vs veh, GPN3 / RFU, C9orf123 / Fold change vs veh, C9orf123 / RFU, N4BP2L2 / Fold change vs veh, N4BP2L2 / RFU, ARFIP1 / Fold change vs veh, ARFIP1 / RFU, FAM179B / Fold change vs veh, FAM179B / RFU, BCL10 / Fold change vs veh, BCL10 / RFU, UHRF1BP1L / Fold change vs veh, UHRF1BP1L / RFU, BET1 / Fold change vs veh, BET1 / RFU, CNOT2 / Fold change vs veh, CNOT2 / RFU, ZNF268 / Fold change vs veh, ZNF268 / Fold change vs veh, ZNF507 / RFU, DGCR2 / Fold change vs veh, DGCR2 / RFU, WDSUB1 / Fold change vs veh, WDSUB1 / Fold change vs veh, HSP90B1 /// MIR3652 / RFU, ADSS / Fold change vs veh, ADSS / RFU, GK / Fold change vs veh, GK / RFU, ZNF148 / Fold change vs veh, ZNF148 / RFU, TAF9 / Fold change vs veh, TAF9 / RFU, SLC1A5 / Fold change vs veh, SLC1A5 / RFU, SLMO2 / Fold change vs veh, SLMO2 / RFU, ABCC4 / Fold change vs veh, ABCC4 / RFU, LOC101060439 /// RAP1B / Fold change vs veh, LOC101060439 /// RAP1B / RFU, RFX7 / Fold change vs veh, RFX7 / RFU, GTPBP10 / Fold change vs veh, GTPBP10 / RFU, CNEP1R1 / Fold change vs veh, CNEP1R1 / RFU, BIVM-ERCC5 /// ERCC5 / Fold change vs veh, BIVM-ERCC5 /// ERCC5 / RFU, ILF3 / Fold change vs veh, ILF3 / RFU 11762660_at / Fold change /veh 11762660_at / RFU VCAN (11757783_s_at) / Fold change /veh VCAN (11757783_s_at) / RFU DDX43 (11728927_at) / Fold change /veh DDX43 (11728927_at) / RFU KRT8 (11758188_x_at) / Fold change /veh KRT8 (11758188_x_at) / RFU NKD1 (11759106_at) / Fold change /veh NKD1 (11759106_at) / RFU SRD5A1 (11742802_a_at) / Fold change /veh SRD5A1 (11742802_a_at) / RFU TPSAB1 /// TPSB2 (11721975_s_at) / Fold change /veh TPSAB1 /// TPSB2 (11721975_s_at) / RFU GSTM3 (11746129_a_at) / Fold change /veh GSTM3 (11746129_a_at) / RFU IL23R (11737362_x_at) / Fold change /veh IL23R (11737362_x_at) / RFU TMEM51 (11727254_a_at) / Fold change /veh TMEM51 (11727254_a_at) / RFU PIWIL2 (11732686_x_at) / Fold change /veh PIWIL2 (11732686_x_at) / RFU ORM1 (11744905_x_at) / Fold change /veh ORM1 (11744905_x_at) / RFU CCDC152 (11743942_at) / Fold change /veh CCDC152 (11743942_at) / RFU ECM1 (11717891_a_at) / Fold change /veh ECM1 (11717891_a_at) / RFU IL23R (11748794_a_at) / Fold change /veh IL23R (11748794_a_at) / RFU TNFAIP8L3 (11732012_x_at) / Fold change /veh TNFAIP8L3 (11732012_x_at) / RFU MBOAT4 (11741988_at) / Fold change /veh MBOAT4 (11741988_at) / RFU 11764193_at / Fold change /veh 11764193_at / RFU TMEM53 (11763286_at) / Fold change /veh TMEM53 (11763286_at) / RFU MAGEB2 (11727129_at) / Fold change /veh MAGEB2 (11727129_at) / RFU TMEM200A (11744735_a_at) / Fold change /veh TMEM200A (11744735_a_at) / RFU CCDC152 (11751479_a_at) / Fold change /veh CCDC152 (11751479_a_at) / RFU FAM211A (11726209_a_at) / Fold change /veh FAM211A (11726209_a_at) / RFU RGS16 (11746705_a_at) / Fold change /veh RGS16 (11746705_a_at) / RFU VCAN (11755009_s_at) / Fold change /veh VCAN (11755009_s_at) / RFU RHOB (11743442_s_at) / Fold change /veh RHOB (11743442_s_at) / RFU RGS16 (11720943_a_at) / Fold change /veh RGS16 (11720943_a_at) / RFU RGS16 (11720944_at) / Fold change /veh RGS16 (11720944_at) / RFU, VPS4B / Fold change vs veh, VPS4B / RFU, CREB1 / Fold change vs veh, CREB1 / RFU, DNAJC13 / Fold change vs veh, DNAJC13 / RFU, GNAQ / Fold change vs veh, GNAQ / RFU, CDK5R1 / Fold change vs veh, CDK5R1 / RFU, ZRANB3 / Fold change vs veh, ZRANB3 / RFU, CUL4A / Fold change vs veh, CUL4A / RFU, CCNY / Fold change vs veh, CCNY / RFU, UFL1 / Fold change vs veh, UFL1 / RFU, COG3 / Fold change vs veh, COG3 / RFU, DIAPH2 / Fold change vs veh, DIAPH2 / RFU, SKA2 / Fold change vs veh, SKA2 / RFU, AFF3 / Fold change vs veh, AFF3 / RFU, LMF1 / Fold change vs veh, LMF1 / RFU, IPO11 / Fold change vs veh, IPO11 / RFU, DFFB / Fold change vs veh, DFFB / RFU, FOXP1 / Fold change vs veh, FOXP1 / RFU, CARD8 / Fold change vs veh, CARD8 / RFU, STRN3 / Fold change vs veh, STRN3 / RFU, ADK / Fold change vs veh, ADK / RFU, RASSF2 / Fold change vs veh, RASSF2 / RFU, WIPF1 / Fold change vs veh, WIPF1 / RFU, LARP1B / Fold change vs veh, LARP1B / RFU, RASA1 / Fold change vs veh, RASA1 / RFU, RB1 / Fold change vs veh, RB1 / RFU, PPFIA1 / Fold change vs veh, PPFIA1 / RFU, MAT2A / Fold change vs veh, MAT2A / RFU, CCT5 / Fold change vs veh, CCT5 / RFU, WDR92 / Fold change vs veh, WDR92 / RFU, CUX1 / Fold change vs veh, CUX1 / RFU, TTC7A / Fold change vs veh, TTC7A / RFU, TMEM135 / Fold change vs veh, TMEM135 / RFU, DEPTOR / Fold change vs veh, DEPTOR / RFU, CPM / Fold change vs veh, CPM / RFU, DNAJB6 / Fold change vs veh, DNAJB6 / RFU, CACNA2D3 / Fold change vs veh, CACNA2D3 / RFU, DTX4 / Fold change vs veh, DTX4 / RFU, TFCP2 / Fold change vs veh, TFCP2 / RFU, GMCL1 /// GMCL1P1 / Fold change vs veh, GMCL1 /// GMCL1P1 / RFU, AEBP2 / Fold change vs veh, AEBP2 / RFU, SNHG1 /// SNORD22 /// SNORD25 /// SNORD26 /// SNORD27 /// SNORD28 /// SNORD29 /// SNORD31 / Fold change vs veh, SNHG1 /// SNORD22 /// SNORD25 /// SNORD26 /// SNORD27 /// SNORD28 /// SNORD29 /// SNORD31 / Fold change (Aza/veh), C12orf56 (ProbeSet 11735607_a_at) / Fold change (ACY-1035/veh), C12orf56 (ProbeSet 11735607_a_at) / Fold change (Aza/veh), FGFR1OP (ProbeSet 11751329_s_at) / Fold change (ACY-1035/veh), FGFR1OP (ProbeSet 11751329_s_at) / Fold change (Aza/veh), VPS36 (ProbeSet 11739960_a_at) / Fold change (ACY-1035/veh), VPS36 (ProbeSet 11739960_a_at) / RFU SYPL1 (11715823_x_at) / Fold change /veh SYPL1 (11715823_x_at) / RFU IGFBP7 (11715501_s_at) / Fold change /veh IGFBP7 (11715501_s_at) / RFU REEP3 (11722064_at) / Fold change /veh REEP3 (11722064_at) / RFU IGLL1 (11728026_x_at) / Fold change /veh IGLL1 (11728026_x_at): dose or concentration left out as unconfirmed
Conditions: MV-4-11 cells, 48 hours

Nc1ccc(-c2cccs2)cc1NC(=O)c1ccc2c(c1)cc(C1CC1)n2CCN1CCOCC1 [ACY-1035]
RFU SAMD14 (11745864_x_at): 19.46 RFU
